BindingDB's records for doi:10.1021/cc990074a (Ariad Pharmaceuticals, 2000)
pIC50: −log10 of the molar value.

Target: Proto-oncogene tyrosine-protein kinase Src (Homo sapiens)
Assay: Compounds were tested for binding to Src SH2 using a fluorescence polarization binding assay according to methods previously described. IC50 values were assigned to individual compounds according to their competitive binding affinity versus a high-affinity peptide probe, fluorescein-pTyr-pTyr-pTyr-Ile-Glu-NH2.

pIC50	Compound
< 4.00	O=C(NCc1ccc(OCC2CCCCC2)cc1)c1ccc(OP(=O)(O)O)cc1 [Src SH2 inhibitor, 4]
4.43	COc1ccc(C(C)NC(=O)C(Cc2ccc(OP(=O)(O)O)cc2)NC(C)=O)cc1C(N)=O (stereo not drawn) [Src SH2 inhibitor, 1b]

Compound	pIC50
NC(=O)c1cc(CNC(=O)c2ccc(OP(=O)(O)O)cc2)ccc1OCC1CCCCC1 [Src SH2 inhibitor, 3]	5.19
